Assay results reported in BindingDB's records for doi:10.7270/Q2B856NC (Burnham Center For Chemical Genomics, 2011).

Target: T1, Apelin receptor (Homo sapiens, UniProt P35414)
T1 sequence (P35414 whole entry): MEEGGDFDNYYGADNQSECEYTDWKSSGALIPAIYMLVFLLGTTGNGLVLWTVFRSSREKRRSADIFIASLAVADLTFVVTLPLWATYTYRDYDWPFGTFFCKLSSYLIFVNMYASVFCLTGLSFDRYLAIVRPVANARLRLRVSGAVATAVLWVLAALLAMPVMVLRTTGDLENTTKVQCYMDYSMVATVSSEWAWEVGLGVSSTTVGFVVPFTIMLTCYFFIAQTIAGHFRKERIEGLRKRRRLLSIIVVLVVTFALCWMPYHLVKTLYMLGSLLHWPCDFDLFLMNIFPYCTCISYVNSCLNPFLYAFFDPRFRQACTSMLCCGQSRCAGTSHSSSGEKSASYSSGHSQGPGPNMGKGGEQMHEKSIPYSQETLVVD
Assay: APJ beta-arrestin recruitment antagonism, SAR follow-up, selectivity assay for CCR6 antagonist project, cell-based, luminescent, enzyme-fragment complementation (AID 588359)

Structure (SMILES) | IC50 [µM]
OCC12C=CC(O1)c1c2c(O)n(-c2ccccc2-c2ccccc2)c1O (stereo not drawn) [7-(hydroxymethyl)-2-(2-phenylphenyl)-4,7a-dihydro-3aH-octahydro-1H-4,7-epoxyisoindole-1,3-dione] | > 66.6
CC(N=Nc1ccc2ccccc2n1)c1ccccc1O (stereo not drawn) [(6Z)-6-[1-[N'-(2-quinolyl)hydrazino]ethylidene]cyclohexa-2,4-dien-1-one] | 4.12
CN1C(=O)C(C2CC(c3ccc(Cl)cc3)N=N2)C(=O)N(C)C1=O (stereo not drawn) [SMR000439471] | 7.22
